Laboratory results published in patent US4357344A, “Polybutylbenzylphenols and benzyl-3,4-methylenedioxybenzenes in insect population control” (The United States of America as represented by the …, priority 1979, dated 1982).

Columns and labels:
Type in all cases: in vivo
[1] = tested on: flies (family Muscidae); assay: Chemosterilancy tests (egg hatch and pupal development; Examples 6-9)
Protocol: The compound to be tested was administered in a standard fly food containing 6 parts of sugar, 6 parts of powdered non-fat dry milk, and 1 part of powdered egg yolk. Treated food was prepared by mixing an appropriate amount of a solution or suspension of CBCP in acetone with a batch of the food. The acetone was evaporated (4-6 hours) and the dry material was repulverized.
Chemosterilancy tests: If eggs were laid in the above tests, the cups were filled with water and stirred to break up the egg masses. A random sample of 100 eggs from each cup was collected and placed on a small piece of black cloth which was then laid on top of moist larva-rearing medium in a rearing container. Observations were made to determine percentage of egg hatch and pupal development.
The procedure outlined in Example 6 was followed using a Group II compound.
The procedure outlined in Example 6 was followed using Group III compounds. The results are summarized below:
The procedure outlined in Example 6 was followed substituting a Group IV compound for those of Group I. The table below provides a summary of results.

[2] = tested on: flies (family Muscidae); assay: Oviposition inhibition tests (treated fly food; Examples 6-9)
Protocol: The compound to be tested was administered in a standard fly food containing 6 parts of sugar, 6 parts of powdered non-fat dry milk, and 1 part of powdered egg yolk. Treated food was prepared by mixing an appropriate amount of a solution or suspension of CBCP in acetone with a batch of the food. The acetone was evaporated (4-6 hours) and the dry material was repulverized. Oviposition inhibition tests: Samples of treated food with a container of water were placed in cages containing 100 newly-emerged adult flies (family Muscidae). After the flies had been exposed to the treated diet for 6-7 days, 1/2 inch of moist standard fly larva-rearing medium (CSMA) in souffle cups was placed in the cages for oviposition. After 4-6 hours, the cup was removed and examined for eggs. […] The procedure outlined in Example 6 was followed using a Group II compound. The procedure outlined in Example 6 was followed using Group III compounds. The results are summarized below: The procedure outlined in Example 6 was followed substituting a Group IV compound for those of Group I. The table below provides a summary of results.

[3] = tested on: early fourth-stage larvae of the common malaria mosquito (Anopheles quadrimaculatus); assay: Growth-inhibition tests on mosquito larvae; conditions: in water; corrected by Abbott's formula
Protocol: The compound to be tested was added to one liter of water until the final concentration thereof was a growth-inhibiting amount. Fifty early fourth-stage larvae of the common malaria mosquito (Anopheles quadrimaculatus) were placed on this water. Larval food was administered daily. Dead larvae and pupae were removed, counted, and discarded daily. Live pupae were removed, rinsed, and transferred to a cup of distilled water. The cup was placed in an emergence cage, and the emerging adults, if any, were maintained on a sugar-water diet.
The effectiveness of the compound in inhibiting growth was determined by adding the number of dead larvae and pupae and the number of adults that were dead, unable to complete eclosion, and malformed. This sum was corrected by Abbott's formula (to adjust for the number of larvae or pupae which would die naturally) and designated as the GI (growth inhibition). The results are expressed as GI-90, i.e., the concentration of growth inhibitor in ppm that would prevent and/or retard growth in 90% of the treated larvae.

COc1ccc(Cc2cc3c(cc2OC)OCO3)cc1 [L, (4-Methoxybenzyl)-3,4-methylenedioxy-6-methoxybenzene]
Egg hatch ([1]; 0.01% in food): 91%
Pupal development ([1]; 0.01% in food): 91%
Egg hatch ([1]; 0.05% in food): 0%
Pupal development ([1]; 0.05% in food): 0%
Egg hatch ([1]; 0.1% in food): 0%
Pupal development ([1]; 0.1% in food): 0%
Mortality, parent generation ([2]; 0.01% in food): 0%
Mortality, parent generation ([2]; 0.05% in food): 0%
Mortality, parent generation ([2]; 0.1% in food): 0%
Mortality, parent generation ([2]; 0.25% in food): 60%

CCCCOc1cc2c(cc1C(C)c1ccccc1)OCO2 (stereo not drawn) [V, (α-Methylbenzyl)-3,4-methylenedioxy-6-n-butoxybenzene]
Egg hatch ([1]; 0.5% in food): 34%
Pupal development ([1]; 0.5% in food): 34%
GI-90 (concentration of growth inhibitor that would prevent and/or retard growth in 90% of the treated larvae) [3]: 0.097 ppm
Mortality, parent generation ([2]; 0.5% in food): 0%

CCOc1cc2c(cc1Cc1ccc3c(c1)OCO3)OCO2 [NN, (3,4-methylenedioxy-6-ethoxybenzyl)-3,4-methylenedioxybenzene]
Egg hatch ([1]; 0.05% in food): 2%
Pupal development ([1]; 0.05% in food): 2%
Egg hatch ([1]; 0.1% in food): 0%
Pupal development ([1]; 0.1% in food): 0%
Mortality, parent generation ([2]; 0.05% in food): 0%
Mortality, parent generation ([2]; 0.1% in food): 0%

COc1ccc(Cc2ccc3c(c2)OCO3)c(OC)c1 [LL, (2,4-Dimethoxybenzyl)-3,4-methylenedioxybenzene]
Egg hatch ([1]; 0.1% in food): 76%
Pupal development ([1]; 0.1% in food): 76%
GI-90 (concentration of growth inhibitor that would prevent and/or retard growth in 90% of the treated larvae) [3]: 0.2 ppm
Mortality, parent generation ([2]; 0.1% in food): 0%
Mortality, parent generation ([2]; 0.25% in food): 60%

COc1ccc(C(C)c2cc3c(cc2OC)OCO3)cc1 (stereo not drawn) [H, (α-Methyl-4-methoxybenzyl)-3,4-methylenedioxy-6-methoxybenzene]
Egg hatch ([1]; 0.01% in food): 14%
Pupal development ([1]; 0.01% in food): 14%
Egg hatch ([1]; 0.025% in food): 45%
Pupal development ([1]; 0.025% in food): 45%
GI-90 (concentration of growth inhibitor that would prevent and/or retard growth in 90% of the treated larvae) [3]: 0.5 ppm
Mortality, parent generation ([2]; 0.01% in food): 0%
Mortality, parent generation ([2]; 0.025% in food): 0%

COc1ccc(Cc2cc3c(cc2OCCC(C)C)OCO3)cc1 [S, (4-Methoxybenzyl)-3,4-methylenedioxy-6-iso-pentoxybenzene]
Egg hatch ([1]; 0.05% in food): 55%
Pupal development ([1]; 0.05% in food): 55%
Egg hatch ([1]; 0.1% in food): 6%
Pupal development ([1]; 0.1% in food): 6%
Egg hatch ([1]; 0.25% in food): 0%
Pupal development ([1]; 0.25% in food): 0%
Egg hatch ([1]; 0.5% in food): 0%
Pupal development ([1]; 0.5% in food): 0%
GI-90 (concentration of growth inhibitor that would prevent and/or retard growth in 90% of the treated larvae) [3]: 0.036 ppm
Mortality, parent generation ([2]; 0.05% in food): 0%
Mortality, parent generation ([2]; 0.1% in food): 0%
Mortality, parent generation ([2]; 0.25% in food): 0%
Mortality, parent generation ([2]; 0.5% in food): 0%

CCOc1ccc(Cc2ccc3c(c2)OCO3)cc1C [II, (3-Methyl-4-ethoxybenzyl)-3,4-methylenedioxybenzene]
Egg hatch ([1]; 0.25% in food): 50%
Pupal development ([1]; 0.25% in food): 50%
Mortality, parent generation ([2]; 0.25% in food): 0%
Mortality, parent generation ([2]; 0.5% in food): 80%

CCCCCOc1cc2c(cc1C(C)c1ccccc1)OCO2 (stereo not drawn) [W, (α-Methylbenzyl)-3,4-methylenedioxy-6-n-pentoxybenzene]
GI-90 (concentration of growth inhibitor that would prevent and/or retard growth in 90% of the treated larvae) [3]: 0.2 ppm

COc1ccc(Cc2ccc3c(c2)OCO3)cc1C [HH, (3-Methyl-4-methoxybenzyl)-3,4-methylenedioxybenzene]
Egg hatch ([1]; 0.1% in food): 82%
Pupal development ([1]; 0.1% in food): 82%
Mortality, parent generation ([2]; 0.1% in food): 0%
Mortality, parent generation ([2]; 0.25% in food): 80%

CCCCCOc1cc2c(cc1Cc1ccc(OC)cc1)OCO2 [R]
Egg hatch ([1]; 0.05% in food): 76%
Pupal development ([1]; 0.05% in food): 76%
Egg hatch ([1]; 0.1% in food): 31%
Pupal development ([1]; 0.1% in food): 31%
Egg hatch ([1]; 0.25% in food): 0%
Pupal development ([1]; 0.25% in food): 0%
Mortality, parent generation ([2]; 0.05% in food): 0%
Mortality, parent generation ([2]; 0.1% in food): 0%
Mortality, parent generation ([2]; 0.25% in food): 0%
